Laboratory results reported in paper PMC4029803, “Glutathione-Binding Site of a Bombyx mori Theta-Class Glutathione Transferase” (PLoS ONE, 2014).

Experiments:
bmGSTT [1] = molecular target: T1, bmGSTT (Bombyx mori, UniProt B0LB14, H40A); test: spectrophotometric GST assay, […] nm; assay type: biochemical; conditions: 5 mM GSH; read-out: bmGSTT mutants / H40A
T1 construct: cDNA from larval fat body; primers encode N-terminal MVLKLYYD and C-terminal AANSKL
T1 sequence (B0LB14 1-229 H40A): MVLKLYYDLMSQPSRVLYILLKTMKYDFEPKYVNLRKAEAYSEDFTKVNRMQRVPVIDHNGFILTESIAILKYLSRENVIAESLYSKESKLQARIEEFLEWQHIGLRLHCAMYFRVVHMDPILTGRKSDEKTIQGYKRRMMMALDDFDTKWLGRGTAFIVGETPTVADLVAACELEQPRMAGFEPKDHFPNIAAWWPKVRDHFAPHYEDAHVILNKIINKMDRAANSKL

bmGSTT [2] = molecular target: T2, bmGSTT (Bombyx mori, UniProt B0LB14, E66A); test: spectrophotometric GST assay, […] nm; assay type: biochemical; conditions: 5 mM GSH; read-out: bmGSTT mutants / E66A
T2 construct: cDNA from larval fat body; primers encode N-terminal MVLKLYYD and C-terminal AANSKL
T2 sequence (B0LB14 1-229 E66A): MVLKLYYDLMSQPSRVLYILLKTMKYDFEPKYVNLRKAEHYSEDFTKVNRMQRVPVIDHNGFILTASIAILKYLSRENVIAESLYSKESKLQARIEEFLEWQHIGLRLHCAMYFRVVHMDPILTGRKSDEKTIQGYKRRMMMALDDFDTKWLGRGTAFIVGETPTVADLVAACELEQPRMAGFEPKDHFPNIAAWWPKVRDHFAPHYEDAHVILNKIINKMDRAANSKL

bmGSTT [3] = molecular target: T3, bmGSTT (Bombyx mori, UniProt B0LB14, R107A); test: spectrophotometric GST assay, […] nm; assay type: biochemical; conditions: 5 mM GSH; read-out: bmGSTT mutants / R107A
T3 construct: cDNA from larval fat body; primers encode N-terminal MVLKLYYD and C-terminal AANSKL
T3 sequence (B0LB14 1-229 R107A): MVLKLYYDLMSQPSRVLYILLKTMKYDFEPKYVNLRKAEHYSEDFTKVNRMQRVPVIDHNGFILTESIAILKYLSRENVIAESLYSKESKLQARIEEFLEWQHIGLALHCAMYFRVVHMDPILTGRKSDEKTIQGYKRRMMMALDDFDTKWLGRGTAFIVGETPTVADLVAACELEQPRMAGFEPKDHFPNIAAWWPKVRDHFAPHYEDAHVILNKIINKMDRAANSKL

bmGSTT [4] = molecular target: T4, bmGSTT (Bombyx mori, UniProt B0LB14); test: spectrophotometric GST assay, […] nm; assay type: biochemical; conditions: 5 mM GSH; Table 1 activity at pH 8; read-out: WT
T4 construct: cDNA from larval fat body; primers encode N-terminal MVLKLYYD and C-terminal AANSKL
T4 sequence (B0LB14 1-229): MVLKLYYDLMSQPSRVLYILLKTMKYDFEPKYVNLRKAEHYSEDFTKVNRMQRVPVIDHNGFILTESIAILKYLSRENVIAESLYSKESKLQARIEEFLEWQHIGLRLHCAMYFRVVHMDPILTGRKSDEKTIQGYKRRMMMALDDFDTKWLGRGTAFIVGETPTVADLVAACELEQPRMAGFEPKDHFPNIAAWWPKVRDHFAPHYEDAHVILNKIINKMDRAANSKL

purified protein = substrate: O=[N+]([O-])c1ccc(CCBr)cc1; test: purified protein; conditions: 5 mM GSH

Which Km (bmGSTT [1]) does the source give for `O=[N+]([O-])c1ccc(Cl)c([N+](=O)[O-])c1` [CDNB, 1-chloro-2,4-dinitrobenzene] here?
The Km was 520 µM.

And the Km (bmGSTT [2])?
Its Km is 12000 µM.

And the Km (bmGSTT [3])?
The Km was 960 µM.

And the Km (bmGSTT [4])?
Its Km is 1500 µM.

B1: bmGSTT (Bombyx mori; H40A) (protein)
chain: MVLKLYYDLMSQPSRVLYILLKTMKYDFEPKYVNLRKAEAYSEDFTKVNRMQRVPVIDHNGFILTESIAILKYLSRENVIAESLYSKESKLQARIEEFLEWQHIGLRLHCAMYFRVVHMDPILTGRKSDEKTIQGYKRRMMMALDDFDTKWLGRGTAFIVGETPTVADLVAACELEQPRMAGFEPKDHFPNIAAWWPKVRDHFAPHYEDAHVILNKIINKMDRAANSKL
B1 was tested. Which Km (purified protein) did it give?
Its Km is 2.3 (0.22) mM.

B2: bmGSTT (Bombyx mori; V54A) (protein)
chain: MVLKLYYDLMSQPSRVLYILLKTMKYDFEPKYVNLRKAEHYSEDFTKVNRMQRAPVIDHNGFILTESIAILKYLSRENVIAESLYSKESKLQARIEEFLEWQHIGLRLHCAMYFRVVHMDPILTGRKSDEKTIQGYKRRMMMALDDFDTKWLGRGTAFIVGETPTVADLVAACELEQPRMAGFEPKDHFPNIAAWWPKVRDHFAPHYEDAHVILNKIINKMDRAANSKL
How did the Km (purified protein) turn out when B2 was run?
The Km was 0.50 (0.083) mM.

B3: bmGSTT (Bombyx mori; R107A) (protein)
chain: MVLKLYYDLMSQPSRVLYILLKTMKYDFEPKYVNLRKAEHYSEDFTKVNRMQRVPVIDHNGFILTESIAILKYLSRENVIAESLYSKESKLQARIEEFLEWQHIGLALHCAMYFRVVHMDPILTGRKSDEKTIQGYKRRMMMALDDFDTKWLGRGTAFIVGETPTVADLVAACELEQPRMAGFEPKDHFPNIAAWWPKVRDHFAPHYEDAHVILNKIINKMDRAANSKL
Which Km (purified protein) does the source give for B3 here?
Its Km is 0.52 (0.071) mM.

B4: bmGSTT (Bombyx mori) (protein)
chain: MVLKLYYDLMSQPSRVLYILLKTMKYDFEPKYVNLRKAEHYSEDFTKVNRMQRVPVIDHNGFILTESIAILKYLSRENVIAESLYSKESKLQARIEEFLEWQHIGLRLHCAMYFRVVHMDPILTGRKSDEKTIQGYKRRMMMALDDFDTKWLGRGTAFIVGETPTVADLVAACELEQPRMAGFEPKDHFPNIAAWWPKVRDHFAPHYEDAHVILNKIINKMDRAANSKL
For B4, which Km (purified protein; Table 1 activity at pH 8) is on record?
Its Km is 0.13 (0.03) mM.
